From article PMC2453633 (Diabetes, 2008)
Peptide text beside a SMILES is read from it.

Tests used:
[1] = target: T1, I-A^g7 (Mus musculus, UniProt P04228+Q31135); format: binding
T1 sequence (P04228 24-256): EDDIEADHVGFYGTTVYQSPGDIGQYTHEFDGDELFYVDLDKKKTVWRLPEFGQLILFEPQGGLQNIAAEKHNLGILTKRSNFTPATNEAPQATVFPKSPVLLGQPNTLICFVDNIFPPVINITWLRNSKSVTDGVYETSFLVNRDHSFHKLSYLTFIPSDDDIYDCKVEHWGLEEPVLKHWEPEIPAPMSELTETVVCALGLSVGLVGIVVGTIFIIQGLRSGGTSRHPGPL
T1 sequence (Q31135 1-263): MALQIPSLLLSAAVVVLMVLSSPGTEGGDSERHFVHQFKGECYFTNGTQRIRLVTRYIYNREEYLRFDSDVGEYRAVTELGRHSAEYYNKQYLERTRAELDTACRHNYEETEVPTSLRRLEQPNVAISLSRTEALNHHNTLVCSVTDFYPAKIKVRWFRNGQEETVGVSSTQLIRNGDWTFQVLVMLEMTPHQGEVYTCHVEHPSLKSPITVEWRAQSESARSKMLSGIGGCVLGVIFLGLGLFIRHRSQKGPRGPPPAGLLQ

[2] = target: I-A^k (Mus musculus, UniProt P01910+P06343); assay: Peptide-binding assay on soluble I-A^k
[3] = tested on: ACP T-cell hybridomas; assay: T-cell hybridoma reactivity with nonamers spanning PI-1; format: cell-based, mouse; conditions: eight ACP T-cell hybridomas tested; all negative

Compound | IC50 [1] [µM] | IC50 [2] [µM] | T-cells reactive with nonamer (of T-cells tested) [3]
CC(C)[C@H](NC(=O)[C@H](CCCCN)NC(=O)[C@H](CCCCN)NC(=O)CN)C(=O)N[C@@H](C)C(=O)N[C@H](C(=O)N[C@H](C(=O)N[C@H](C(=O)N[C@@H](Cc1c[nH]cn1)C(=O)N[C@@H](C)C(=O)NCC(=O)N[C@@H](Cc1ccc(O)cc1)C(=O)NCC(=O)O)C(C)C)[C@@H](C)O)[C@@H](C)O [MIME, reference compound] (H-GKKVATTVHAGYG-OH) | 1 |  | 
CC(C)C[C@H](NC(=O)[C@H](C)NC(=O)[C@H](CC(C)C)NC(=O)[C@@H](NC(=O)[C@H](CCC(N)=O)NC(=O)[C@H](CC(C)C)NC(=O)[C@H](CC(=O)O)NC(=O)CNC(=O)[C@@H]1CCCN1C(=O)[C@@H](N)CO)[C@@H](C)O)C(=O)N[C@@H](CCC(=O)O)C(=O)N[C@H](C(=O)N[C@@H](C)C(=O)N[C@@H](CCCNC(=N)N)C(=O)N[C@@H](CCC(N)=O)C(=O)N[C@@H](CCCCN)C(=O)N[C@@H](CCCNC(=N)N)C(=O)NCC(=O)O)C(C)C [PI-1(47–64)] (H-SPGDLQTLALEVARQKRG-OH) | 98.9 | 4.8 | 
CC(C)C[C@H](NC(=O)[C@H](C)NC(=O)[C@H](CC(C)C)NC(=O)[C@@H](NC(=O)[C@H](CCC(N)=O)NC(=O)[C@H](CC(C)C)NC(=O)[C@H](CC(=O)O)NC(=O)CN)[C@@H](C)O)C(=O)N[C@@H](CCC(=O)O)C(=O)N[C@H](C(=O)N[C@@H](C)C(=O)N[C@@H](CCCNC(=N)N)C(=O)N[C@@H](CCC(N)=O)C(=O)O)C(C)C [PI-1(49–61)] (H-GDLQTLALEVARQ-OH) | 20 |  | 
CC(C)C[C@H](NC(=O)[C@H](C)NC(=O)[C@H](CC(C)C)NC(=O)[C@@H](NC(=O)[C@H](CCC(N)=O)NC(=O)[C@H](CC(C)C)NC(=O)[C@H](CC(=O)O)NC(=O)CNC(=O)[C@H](C)NC(=O)CN)[C@@H](C)O)C(=O)N[C@@H](CCC(=O)O)C(=O)N[C@H](C(=O)N[C@@H](C)C(=O)N[C@@H](CCC(N)=O)C(=O)N[C@@H](CCC(N)=O)C(=O)N[C@@H](CCCCN)C(=O)N[C@@H](CCCNC(=N)N)C(=O)NCC(=O)O)C(C)C [PI-2(49–66)] (H-GAGDLQTLALEVAQQKRG-OH) | 136 | 2.1 | 
LQTLALEVA |  |  | 0 of 8
QTLALEVAR |  |  | 0 of 8
TLALEVARQ |  |  | 0 of 8
